# Results as given in paper PMC5573954 (Hippocampus, 2017).
# Like-named read-outs stand apart in the source and are kept apart here.
# What was measured:
# [1] = target: T1, hM4 (Homo sapiens, UniProt P08173); experiment: GloSensor cAMP functional assay, HEK293 cells stably expressing hM4; conditions: for selectivity for hM4 over hM2 (fold shift of PAM EC50): hM2 EC50 versus hM4 EC50, PAM mode
# T1 sequence (P08173 1-479): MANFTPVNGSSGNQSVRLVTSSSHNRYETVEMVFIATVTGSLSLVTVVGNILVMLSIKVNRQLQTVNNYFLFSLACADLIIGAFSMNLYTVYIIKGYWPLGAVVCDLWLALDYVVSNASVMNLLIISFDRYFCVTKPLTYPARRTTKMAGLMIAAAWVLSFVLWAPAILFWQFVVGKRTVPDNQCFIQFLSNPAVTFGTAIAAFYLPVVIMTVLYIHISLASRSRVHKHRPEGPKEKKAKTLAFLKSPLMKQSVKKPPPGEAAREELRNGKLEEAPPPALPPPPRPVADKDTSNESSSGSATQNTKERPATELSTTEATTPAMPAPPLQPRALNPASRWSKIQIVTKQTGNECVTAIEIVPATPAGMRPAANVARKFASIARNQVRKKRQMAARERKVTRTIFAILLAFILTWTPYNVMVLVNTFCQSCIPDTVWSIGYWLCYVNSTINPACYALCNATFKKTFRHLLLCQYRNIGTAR
# [2] = tested on: putative PV+ CA1 interneurons; experiment: Whole‐cell current step evoked firing of putative PV+ CA1 interneurons; format: cell-based, rat; conditions: 300 nM; n = 4; p = 0.0275
# [3] = tested on: spontaneous firing rates of CA1 neurons
# [4] = tested on: CA1 pyramidal neurons; experiment: Whole‐cell current step evoked firing of CA1 pyramidal neurons; format: cell-based, rat
# [5] = tested on: TA‐evoked EPSCs in CA1 pyramidal neurons; format: cell-based, rat
# [6] = target: T2, hM1 (Homo sapiens, UniProt P11229); experiment: FLIPR Ca2+ functional assay, CHO K1 cells stably expressing hM1; format: cell-based
# T2 sequence (P11229 1-460): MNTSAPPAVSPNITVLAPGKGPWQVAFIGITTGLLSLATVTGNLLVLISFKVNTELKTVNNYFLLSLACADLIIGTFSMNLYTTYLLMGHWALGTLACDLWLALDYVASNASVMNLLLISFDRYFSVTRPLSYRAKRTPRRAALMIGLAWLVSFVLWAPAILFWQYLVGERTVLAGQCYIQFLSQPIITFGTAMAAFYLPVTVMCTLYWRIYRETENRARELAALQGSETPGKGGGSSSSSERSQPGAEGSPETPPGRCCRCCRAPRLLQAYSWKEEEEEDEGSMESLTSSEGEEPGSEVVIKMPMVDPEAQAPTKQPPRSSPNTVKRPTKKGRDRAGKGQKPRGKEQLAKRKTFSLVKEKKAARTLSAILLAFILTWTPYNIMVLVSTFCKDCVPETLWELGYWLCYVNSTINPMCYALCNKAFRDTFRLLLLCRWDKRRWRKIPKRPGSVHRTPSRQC
# [7] = tested on: SC‐evoked EPSCs in CA1 pyramidal neurons; format: cell-based, rat
# [8] = target: hM3 (Homo sapiens, UniProt P20309); experiment: FLIPR Ca2+ functional assay, CHO K1 cells stably expressing hM3; format: cell-based
# [9] = target: T3, rat M4 receptor (rM4) (Rattus norvegicus, UniProt P08485); experiment: GloSensor cAMP functional assay, HEK293 cells stably expressing rM4
# T3 sequence (P08485 1-478): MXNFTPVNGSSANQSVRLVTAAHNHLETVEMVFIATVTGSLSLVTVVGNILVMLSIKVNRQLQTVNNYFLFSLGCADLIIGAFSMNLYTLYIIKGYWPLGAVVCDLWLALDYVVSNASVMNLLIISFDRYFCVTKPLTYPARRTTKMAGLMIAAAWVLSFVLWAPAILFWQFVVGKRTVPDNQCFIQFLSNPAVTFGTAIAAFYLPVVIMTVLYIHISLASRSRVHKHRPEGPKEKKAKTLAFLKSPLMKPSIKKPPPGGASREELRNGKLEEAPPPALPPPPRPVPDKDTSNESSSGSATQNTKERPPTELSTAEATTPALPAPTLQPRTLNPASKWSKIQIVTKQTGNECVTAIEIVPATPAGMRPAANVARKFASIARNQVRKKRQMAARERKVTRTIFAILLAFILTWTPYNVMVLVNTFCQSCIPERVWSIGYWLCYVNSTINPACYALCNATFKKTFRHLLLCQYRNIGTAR
# [10] = target: T4, hM5 (Homo sapiens, UniProt P08912); experiment: FLIPR Ca2+ functional assay, CHO K1 cells stably expressing hM5; format: cell-based
# T4 sequence (P08912 1-532): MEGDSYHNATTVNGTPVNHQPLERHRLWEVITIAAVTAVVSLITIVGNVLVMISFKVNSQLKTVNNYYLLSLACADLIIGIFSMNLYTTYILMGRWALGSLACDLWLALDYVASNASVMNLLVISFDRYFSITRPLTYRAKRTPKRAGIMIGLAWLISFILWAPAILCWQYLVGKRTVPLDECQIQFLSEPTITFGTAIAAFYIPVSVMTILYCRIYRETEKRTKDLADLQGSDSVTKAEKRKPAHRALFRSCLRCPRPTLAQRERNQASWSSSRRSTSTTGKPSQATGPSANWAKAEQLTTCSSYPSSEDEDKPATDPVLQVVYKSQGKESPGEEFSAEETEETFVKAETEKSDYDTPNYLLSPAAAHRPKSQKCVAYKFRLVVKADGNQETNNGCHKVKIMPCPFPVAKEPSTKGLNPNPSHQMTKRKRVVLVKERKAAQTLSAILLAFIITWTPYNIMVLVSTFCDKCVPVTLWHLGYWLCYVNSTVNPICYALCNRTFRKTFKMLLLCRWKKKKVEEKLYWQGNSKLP
# [11] = tested on: SC‐evoked synaptic field potentials in CA1 of hippocampal slices; experiment: Extracellular field potentials evoked by SC stimulation, hippocampal slices; conditions: from fitted dose–response curve, Figure 2a
# [12] = target: T5, hM2 (Homo sapiens, UniProt P08172); experiment: GloSensor cAMP functional assay, HEK293 cells stably expressing hM2; format: cell-based
# T5 sequence (P08172 1-466): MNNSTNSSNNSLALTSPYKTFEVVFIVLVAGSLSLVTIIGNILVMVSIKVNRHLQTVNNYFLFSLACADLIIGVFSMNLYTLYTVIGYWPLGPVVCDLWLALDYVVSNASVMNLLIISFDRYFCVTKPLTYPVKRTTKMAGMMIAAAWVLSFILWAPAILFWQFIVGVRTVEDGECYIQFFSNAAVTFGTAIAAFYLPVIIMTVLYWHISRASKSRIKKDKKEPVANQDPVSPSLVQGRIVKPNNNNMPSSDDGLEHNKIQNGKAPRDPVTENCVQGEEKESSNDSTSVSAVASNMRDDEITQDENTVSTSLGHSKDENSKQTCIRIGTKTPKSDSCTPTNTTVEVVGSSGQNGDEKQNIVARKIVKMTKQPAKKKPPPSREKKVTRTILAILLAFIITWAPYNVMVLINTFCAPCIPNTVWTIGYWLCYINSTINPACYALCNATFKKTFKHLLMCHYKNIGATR
# [13] = target: 5HT2b receptors (Homo sapiens, UniProt P41595); experiment: Nonmuscarinic off-target functional activity: 5HT2b antagonism; format: cell-based
# [14] = tested on: rat M4 receptor; conditions: ref Chan et al., 2008; cited from earlier work
# [15] = target: beta‐2 adrenergic receptors (Homo sapiens, UniProt P07550); experiment: Nonmuscarinic off-target functional activity: beta-2 adrenergic antagonism; format: cell-based
# [16] = 5 μM, end of recordings with PT‐3763, mean ± SEM
# Chain of hM3 (P20309 whole entry): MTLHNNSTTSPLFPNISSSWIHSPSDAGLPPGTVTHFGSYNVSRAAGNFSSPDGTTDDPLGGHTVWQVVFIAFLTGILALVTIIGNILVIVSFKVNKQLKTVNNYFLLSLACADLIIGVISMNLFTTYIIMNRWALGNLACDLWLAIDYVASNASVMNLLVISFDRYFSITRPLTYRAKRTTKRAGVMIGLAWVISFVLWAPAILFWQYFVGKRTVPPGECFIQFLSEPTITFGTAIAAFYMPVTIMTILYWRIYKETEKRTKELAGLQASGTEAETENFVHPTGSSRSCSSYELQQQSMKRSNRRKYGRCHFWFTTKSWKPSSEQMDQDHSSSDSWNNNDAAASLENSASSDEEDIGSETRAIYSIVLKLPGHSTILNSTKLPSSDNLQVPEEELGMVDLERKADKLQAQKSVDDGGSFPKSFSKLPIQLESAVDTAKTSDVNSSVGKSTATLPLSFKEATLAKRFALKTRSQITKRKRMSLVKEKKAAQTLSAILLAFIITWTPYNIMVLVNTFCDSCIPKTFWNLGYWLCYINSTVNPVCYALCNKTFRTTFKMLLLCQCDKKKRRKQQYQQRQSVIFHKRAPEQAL
# Chain of beta‐2 adrenergic receptors (P07550 whole entry): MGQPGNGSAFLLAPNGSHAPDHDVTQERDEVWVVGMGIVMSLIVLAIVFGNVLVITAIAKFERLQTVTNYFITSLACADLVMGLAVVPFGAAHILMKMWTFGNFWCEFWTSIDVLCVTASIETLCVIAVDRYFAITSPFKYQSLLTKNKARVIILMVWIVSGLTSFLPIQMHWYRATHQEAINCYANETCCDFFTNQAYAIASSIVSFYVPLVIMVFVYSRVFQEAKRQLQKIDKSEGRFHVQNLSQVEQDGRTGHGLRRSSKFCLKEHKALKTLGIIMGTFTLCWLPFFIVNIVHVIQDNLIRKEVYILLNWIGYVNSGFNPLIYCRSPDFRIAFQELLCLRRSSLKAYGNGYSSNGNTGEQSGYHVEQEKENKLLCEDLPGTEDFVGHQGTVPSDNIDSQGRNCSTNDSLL
# Chain of 5HT2b receptors (P41595 whole entry): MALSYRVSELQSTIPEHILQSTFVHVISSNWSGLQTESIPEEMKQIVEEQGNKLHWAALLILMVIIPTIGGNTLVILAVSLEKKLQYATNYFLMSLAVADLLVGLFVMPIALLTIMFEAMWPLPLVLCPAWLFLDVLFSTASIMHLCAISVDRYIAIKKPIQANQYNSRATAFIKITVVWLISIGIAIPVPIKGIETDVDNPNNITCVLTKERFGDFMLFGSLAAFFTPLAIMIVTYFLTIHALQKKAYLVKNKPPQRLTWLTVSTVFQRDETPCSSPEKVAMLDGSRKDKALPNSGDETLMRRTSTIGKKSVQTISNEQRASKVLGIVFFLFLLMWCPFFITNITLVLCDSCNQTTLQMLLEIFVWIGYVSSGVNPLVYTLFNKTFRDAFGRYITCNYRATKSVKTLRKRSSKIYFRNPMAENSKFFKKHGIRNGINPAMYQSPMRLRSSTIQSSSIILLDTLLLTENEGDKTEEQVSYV
structure (smiles),measurement,setting,value
Cc1cc(F)c2[nH]c(=O)n(C3CCN(C4CCOCC4)CC3)c2c1 [GSK1034702],EC50,[1],1430 nM
same,firing rates of interneurons following current step,[2],increased firing rates
same,upper z‐score asymptote of normalized spontaneous firing rates,[3]; GSK1034702 data set with VU0255035 reversal,56.3 ± 11.9
same,upper z‐score asymptote of normalized spontaneous firing rates,[3]; GSK1034702 data set with pirenzipine reversal,86.9 ± 13.6
same,spike frequency accommodation,"[4]; 300 nM, 200 pA current injection",significantly reduced
same,number of spikes evoked in response to a 200 pA injected current step,"[4]; 300 nM, p = 0.012 vs baseline",increase
same,"effect on amplitude, slope, or PPR of EPSCs evoked by TA stimulation","[5]; 300 nM, 100 μM picrotoxin",no significant effect
same,EC50,[6],27 nM
same,"effect on amplitude, slope, or PPR of EPSCs evoked by SC stimulation","[7]; 300 nM, 100 μM picrotoxin",no significant effect
N#Cc1cc2[nH]c(=O)c(=O)[nH]c2cc1[N+](=O)[O-] [CNQX],CNQX‐induced suppression of TA‐evoked responses,[5]; [16],79.4 ± 4.8%
same,CNQX‐induced suppression of SC‐evoked responses,[7]; [16],85.2 ± 4.1%
"Cc1nnc2sc(C(=O)NC3CN(c4cccnc4)C3)c(N)c2c1C [PT‐1148, 5‐amino‐3,4‐dimethyl‐N‐(1‐(pyridin‐3‐yl)azetidin‐3‐yl)thieno[2,3‐c]pyridazine‐6‐carboxamide]",selectivity for hM4 over hM2 (fold shift of PAM EC50),[1],536 fold
same,upper z‐score asymptote of normalized spontaneous firing rates,"[3]; in the presence of 20 nM oxotremorine and 1 μM VU0255035, not significant (p = 0.875)",3.77 ± 23.9
O=C(CCNS(=O)(=O)c1cccc2nsnc12)N1CCN(c2ccncc2)CC1 [VU0255035],effect on GSK1034702 induced increase in CA1 firing rates,[3]; 3 μM,reversed
same,effect on oxotremorine induced increase in spontaneous firing rates,[3]; 3 μM,partially reversed
"CC(=O)OCC[N+](C)(C)C [ACh, acetylcholine]",ACh EC20,[8]; hM3 cell line,0.8 nM
same,ACh EC20,[1]; hM4 cell line,15 nM
same,ACh EC20,[9]; rM4 cell line,0.8 nM
same,ACh EC20,[10]; hM5 cell line,2 nM
O=C1CCCN1CC#CCN1CCCC1 [oxotremorine],upper z‐score asymptote of normalized spontaneous firing rates,"[3]; compound alone, mean ± SEM",108.2 ± 6.3
same,EC20 of oxotremorine for reduction of SC‐evoked field potentials,[11],20 nM
"CCOC(=O)N1CCCC(N2CCC(c3cccnc3OC)CC2)CC1 (stereo not shown) [PT‐6950, ethyl 4‐(4‐(2‐methoxypyridin‐3‐yl)piperidin‐1‐yl)azepane‐1‐carboxylate]",EC50,[8],> 10000 nM
same,EC50,[12],2880 nM
same,EC50,[9],2.62 nM
same,IC50,[13],1260 nM
same,upper z‐score asymptote of normalized spontaneous firing rates,"[3]; compound alone, mean ± SEM",12.0 ± 16.7
same,EC50,[10],> 10000 nM
same,EC50,[6],312 nM
CN1CCN(CC(=O)N2c3ccccc3C(=O)Nc3cccnc32)CC1 [pirenzepine],effect on GSK1034702 induced increase in CA1 firing rates,[3]; 3 μM,reversed
same,effect on GSK1034702 induced increase in evoked spikes,[4]; 3 μM,reversed
same,effect on GSK1034702 induced reduction of spike frequency accommodation,[4]; 3 μM,similarly reversed
same,effect on M4 PAM induced reduction of SC‐evoked EPSC amplitude and slope,"[7]; 3 μM, applied after PTX + OXO + M4 PAM",reversed
COc1nc2sc(C(=O)NC3CC3)c(N)c2c(C)c1Cl [LY2033298],EC50,"[1]; hM4, PAM mode, in the presence of an EC20 of ACh (15 nM), isoproterenol 50 nM, brackets 95% CI",41 nM
same,EC50,"[12]; hM2, PAM mode, in the presence of an EC20 of ACh (3 nM), isoproterenol 50 nM, brackets 95% CI",3280 nM
same,potency at the rat M4 receptor compared with the human,[14],much weaker
"Cc1cc(C)c2c(N)c(C(=O)NC3CN(c4cccnc4)C3)sc2n1 [PT‐3763, 3‐amino‐4,6‐dimethyl‐N‐(1‐(pyridin‐3‐yl)azetidin‐3‐yl)thieno[2,3‐b]pyridine‐2‐carboxamide]",selectivity for hM4 over hM2 (fold shift of PAM EC50),[1],28 fold
same,IC50,[15],2990 nM
